Source: patent US20080004227A1, “Pharmaceutical Composition for Lowering Blood Sugar Level” (PHARMAFRONTIER CO., LTD, priority 2004, published 2008)

Tests used:
GLP-1 release = test: In vivo effects of ligands for GT01 on GLP-1 release (plasma GLP-1 enzyme immunoassay); design: species or system mouse; conditions: 100 nmol/g directly into the stomach of 24-hour fasted C57/B6 mice; blood 0.5 or 2 hours after administration (FIG. 11)
Method: A 100 nmol/g of fatty acid (α-linolenic acid, stearic acid, or octanoic acid) was included in polyethyleneglycol as a vehicle, and given, through a tube, directly into the stomach of 8-week old male C57/B6 mice (Sankyo Lab) after 24-hour fasting. The mice were each anaesthetized with diethyl ether 0.5 or 2 hours after the administration of the fatty acid, followed by sampling the blood from the portal vein using a heparinized syringe. The heparizized blood was centrifuged at 4° C. and 1,200×g for 20 minutes to prepare a plasma which was then subjected to enzyme immunoassay for GLP-1 (Yanaihara Institute Inc.). All experiments were performed according to an institute-approved guideline.

insulin release = conditions: 100 nmol/g directly into the stomach of 24-hour fasted C57/B6 mice; 2 hours after administration (FIG. 13)
Method: All experiments were performed according to an institute-approved guideline.

GT01 = GT01 (Mus musculus, UniProt Q7TMA4); conditions: STC-1 cells; peak eliminated by RNAi specific for GT01 (FIG. 6)
Sequence of GT01 (Q7TMA4 whole entry): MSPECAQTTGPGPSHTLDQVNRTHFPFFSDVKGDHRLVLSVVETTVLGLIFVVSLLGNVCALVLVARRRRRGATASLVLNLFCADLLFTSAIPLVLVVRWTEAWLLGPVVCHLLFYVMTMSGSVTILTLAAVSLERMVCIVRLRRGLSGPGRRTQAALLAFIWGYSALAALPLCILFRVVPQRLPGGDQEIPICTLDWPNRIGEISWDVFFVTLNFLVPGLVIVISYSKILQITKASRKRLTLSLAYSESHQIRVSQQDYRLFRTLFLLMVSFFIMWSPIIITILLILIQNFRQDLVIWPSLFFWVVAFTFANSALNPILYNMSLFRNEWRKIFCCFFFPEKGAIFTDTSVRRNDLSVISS
Method: Cells (STC-1 cells) are cultured in a 35-mm culture dish with a cover glass in the bottom. After washing with a Ca-tyrode solution, a Ca-tyrode solution containing 2 μM fura-AM is added thereto, which is then placed at room temperature for 20 minutes. After washing twice with a Ca-tyrode solution, 1 mL of Ca-tyrode solution is added thereto, and images are captured at room temperature at 15-second intervals using ARGUS200 (340/380 nm measurement) with a 40× objective lens. For each of the captured images, the ratio is calculated. Stimulation (using bombesin) serving as a control for the ligand is carried out 10 and 20 minutes later.
When an RNAi vector was transfected, fluorescence due to GFP simultaneously transfected is measured; a Ca^2+ response over time for cells having GFP fluorescence and showing Ca^2+ elevation with the control vector was quantitatively determined, and is indicated (FIG. 6).
The gene transfection into STC-1 cells was carried out using Lipofectamine Plus, and intracellular Ca^2+ concentration was then measured under a microscope (lower graph in FIG. 6).

[1] = system: human intestinal cell line NCI-H716; conditions: literature report, background art; cited from earlier work

SMILES | secretion of GLP-1 (plasma from portal vein) (GLP-1 release) | insulin concentration in plasma, portal vein versus inferior vena cava (insulin release) | elevation of intracellular calcium concentration (GT01) | secretion of GLP-1 from NCI-H716 cells [1]
CCCCCCCCCCCCCCCCCC(=O)O [stearic acid] | induced |  |  | 
CC/C=C\C/C=C\C/C=C\CCCCCCCC(=O)O [α-linolenic acid] | induced | higher concentration of insulin was detected in the plasma sampled from the portal vein | elevates intracellular calcium concentration via GT01 | 
CCCCCCCC/C=C\CCCCCCCC(=O)O [oleic acid] |  |  |  | promotes the secretion of GLP-1
CCCCCCCCCCCCCCCC(=O)O [palmitic acid] |  |  |  | promotes the secretion of GLP-1
